Laboratory results: patent US20250313572A1, “MACROCYCLIC MCL-1 INHIBITORS AND METHODS OF USE” (AbbVie Inc., priority 2017, published 2025)
Where two headings read alike, the source gives them in different places.

Legend:
[1] = system: AMO-1 human multiple myeloma tumor cell line; experiment: AMO-1 cell viability assay (CellTiter-Glo, 24 hours); format: cell-based; details: Homo sapiens
[2] = system: NCI-H929 human multiple myeloma tumor cell line; experiment: NCI-H929 cell viability assay (CellTiter-Glo, 24 hours); format: cell-based; details: Homo sapiens
GST-MCL-1 = GST-MCL-1 (Homo sapiens, UniProt Q07820); experiment: TR-FRET MCL-1 binding assay (competition with probe F-Bak)
Chain of GST-MCL-1 (Q07820 whole entry): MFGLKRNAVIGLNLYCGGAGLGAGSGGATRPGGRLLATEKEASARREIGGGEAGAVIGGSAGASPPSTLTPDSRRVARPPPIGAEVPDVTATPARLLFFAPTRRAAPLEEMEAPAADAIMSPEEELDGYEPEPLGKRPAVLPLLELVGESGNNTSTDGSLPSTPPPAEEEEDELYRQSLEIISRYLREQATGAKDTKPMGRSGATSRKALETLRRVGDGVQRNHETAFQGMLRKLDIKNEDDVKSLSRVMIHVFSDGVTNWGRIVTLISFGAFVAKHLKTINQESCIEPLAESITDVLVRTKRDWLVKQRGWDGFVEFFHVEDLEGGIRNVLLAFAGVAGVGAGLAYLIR
In short: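 Displacement of F-Bak from GST-MCL-1 is detected by time-resolved FRET with a Tb-labelled anti-GST antibody, with excitation 340/35 nm and emission 520/525 and 495/510 nm, after 2 hours at room temperature. Compounds were titrated in 11 three-fold steps starting at 25 μM final, in buffer alone or in 10% HS.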

[3] = AMO1, 24 h, read-out: AMO-1 Viability IC50 (μM, 10% FBS), 10% FBS, 24 hours of compound treatment
[4] = NCI-H929, 24 h, read-out: H929 Viability IC50 (μM, 10% FBS), 10% FBS, 24 hours of compound treatment
[5] = MCL-1 Binding Ki (nM, 10% HS), in the presence of 10% HS (human serum)
[6] = without HS, read-out: MCL-1 Binding Ki

Cc1c(Cl)c2c(Cl)c(C)c1-c1c(-c3ccc(F)cc3)sc3ncnc(c13)O[C@@H](C(=O)O)Cc1cc(ccc1OCc1ccnc(N3C[C@H]4C[C@@H](C3)C4(F)F)n1)OC[C@@H](CN1CCN(C)CC1)O2 [Example 172, (7R,16R)-19,23-dichloro-10-({2-[(1R,5S)-6,6-difluoro-3-azabicyclo[3.1.1]heptan-3-yl]pyrimidin-4-yl}methoxy)-1-(4-fluorophenyl)-20,22-dimethyl-16-[(4-methylpiperazin-1-yl)methyl]-7,8,15,16-tetrahydro-18,21-etheno-13,9-(metheno)-6,14,17-trioxa-2-thia-3,5-diazacyclononadeca[1,2,3-cd]indene-7-carboxylic Acid]
IC50 [1, 3]: 966 pM | IC50 [2, 4]: 0.00524 µM | Ki (GST-MCL-1; [5]): 2.74 nM | Ki (GST-MCL-1; [6]): 0.141 nM

Cc1c(Cl)c2c(Cl)c(C)c1-c1c(-c3ccc(F)cc3)sc3ncnc(c13)O[C@@H](C(=O)O)Cc1cc(ccc1OCc1ccnc(N3CCO[C@H](COCCOCC4COCCO4)C3)n1)OC[C@@H](CN1CCN(C)CC1)O2 (stereo partly drawn) [Example 103, (7R,16R)-19,23-dichloro-10-({2-[(2S)-2-({2-[(1,4-dioxan-2-yl)methoxy]ethoxy}methyl)morpholin-4-yl]pyrimidin-4-yl}methoxy)-1-(4-fluorophenyl)-20,22-dimethyl-16-[(4-methylpiperazin-1-yl)methyl]-7,8,15,16-tetrahydro-18,21-etheno-13,9-(metheno)-6,14,17-trioxa-2-thia-3,5-diazacyclononadeca[1,2,3-cd]indene-7-carboxylic Acid]
IC50 [1, 3]: 281 pM | IC50 [2, 4]: 0.000578 µM | Ki (GST-MCL-1; [5]): 0.172 nM | Ki (GST-MCL-1; [6]): 0.033 nM

COCCOCCOCCOCCCN1CCN(c2nccc(COc3ccc4cc3C[C@H](C(=O)O)Oc3ncnc5sc(-c6ccc(F)cc6)c(c35)-c3c(C)c(Cl)c(c(Cl)c3C)O[C@H](CN3CCN(C)CC3)CO4)n2)CC1 [Example 53, (7R,16R)-19,23-dichloro-1-(4-fluorophenyl)-20,22-dimethyl-16-[(4-methylpiperazin-1-yl)methyl]-10-({2-[4-(2,5,8,11-tetraoxatetradecan-14-yl)piperazin-1-yl]pyrimidin-4-yl}methoxy)-7,8,15,16-tetrahydro-18,21-etheno-13,9-(metheno)-6,14,17-trioxa-2-thia-3,5-diazacyclononadeca[1,2,3-cd]indene-7-carboxylic Acid]
IC50 [1, 3]: 4200 pM | IC50 [2, 4]: 0.00571 µM | Ki (GST-MCL-1; [5]): 0.632 nM | Ki (GST-MCL-1; [6]): 0.301 nM

COCCOCCOCCOCc1cc(OC[C@H]2COCCO2)ccc1-c1nccc(COc2ccc3cc2C[C@H](C(=O)O)Oc2ncnc4sc(-c5ccc(F)cc5)c(c24)-c2c(C)c(Cl)c(c(Cl)c2C)O[C@H](CN2CCN(C)CC2)CO3)n1 [Example 155, (7R,16R)-19,23-dichloro-10-({2-[4-{[(2R)-1,4-dioxan-2-yl]methoxy}-2-(2,5,8,11-tetraoxadodecan-1-yl)phenyl]pyrimidin-4-yl}methoxy)-1-(4-fluorophenyl)-20,22-dimethyl-16-[(4-methylpiperazin-1-yl)methyl]-7,8,15,16-tetrahydro-18,21-etheno-13,9-(metheno)-6,14,17-trioxa-2-thia-3,5-diazacyclononadeca[1,2,3-cd]indene-7-carboxylic Acid]
IC50 [1, 3]: 188 pM | IC50 [2, 4]: 0.000187 µM | Ki (GST-MCL-1; [5]): 0.03 nM | Ki (GST-MCL-1; [6]): 0.001 nM

Cc1c(Cl)c2c(Cl)c(C)c1-c1c(-c3ccc(F)cc3)sc3ncnc(c13)O[C@@H](C(=O)O)Cc1cc(ccc1OCc1ccnc(-c3ccc(OC(=O)N4CCOCC4)cc3)n1)OC[C@@H](CN1CCN(C)CC1)O2 [Example 151, (7R,16R)-19,23-dichloro-1-(4-fluorophenyl)-20,22-dimethyl-16-[(4-methylpiperazin-1-yl)methyl]-10-[(2-{4-[(morpholine-4-carbonyl)oxy]phenyl}pyrimidin-4-yl)methoxy]-7,8,15,16-tetrahydro-18,21-etheno-9,13-(metheno)-6,14,17-trioxa-2-thia-3,5-diazacyclononadeca[1,2,3-cd]indene-7-carboxylic Acid]
IC50 ([1]; AMO1, read-out: AMO-1 Viability IC50 (μM), 10% FBS, 24 hours of compound treatment): 303 pM | IC50 ([2]; NCI-H929, read-out: H929 Viability IC50 (μM), 10% FBS, 24 hours of compound treatment): 0.000735 µM | Ki (GST-MCL-1; [5]): 0.325 nM | Ki (GST-MCL-1; [6]): 0.01 nM

Cc1c(Cl)c2c(Cl)c(C)c1-c1c(-c3ccc(F)cc3)sc3ncnc(c13)O[C@@H](C(=O)O)Cc1cc(ccc1OCc1ccnc(-c3ccc(CCN4CCOCC4)cc3)n1)OC[C@@H](CN1CCN(C)CC1)O2 [Example 142, (7R,16R)-19,23-dichloro-1-(4-fluorophenyl)-20,22-dimethyl-16-[(4-methylpiperazin-1-yl)methyl]-10-[(2-{4-[2-(morpholin-4-yl)ethyl]phenyl}pyrimidin-4-yl)methoxy]-7,8,15,16-tetrahydro-18,21-etheno-13,9-(metheno)-6,14,17-trioxa-2-thia-3,5-diazacyclononadeca[1,2,3-cd]indene-7-carboxylic Acid]
IC50 [1, 3]: 48.8 pM | IC50 [2, 4]: 0.000156 µM | Ki (GST-MCL-1; [5]): 0.776 nM | Ki (GST-MCL-1; [6]): 0.185 nM

COCCOCCOCCOc1ccc(-c2nccc(COc3ccc4cc3C[C@H](C(=O)O)Oc3ncnc5sc(-c6ccc(F)cc6)c(c35)-c3ccc(c(Cl)c3C)O[C@H](CN3CCN(C)CC3)CO4)n2)cc1 (atropisomer, axis not shown) [Example 13, (7R,16R,21S)-19-chloro-1-(4-fluorophenyl)-10-{[2-(4-{2-[2-(2-methoxyethoxy)ethoxy]ethoxy}phenyl)pyrimidin-4-yl]methoxy}-20-methyl-16-[(4-methylpiperazin-1-yl)methyl]-7,8,15,16-tetrahydro-18,21-etheno-13,9-(metheno)-6,14,17-trioxa-2-thia-3,5-diazacyclononadeca[1,2,3-cd]indene-7-carboxylic Acid]
IC50 [1, 3]: 460 pM | IC50 [2, 4]: 0.001 µM | Ki (GST-MCL-1; [5]): 0.251 nM | Ki (GST-MCL-1; [6]): 0.054 nM

CO[C@H]1O[C@H](COc2ccc(-c3nccc(COc4ccc5cc4C[C@H](C(=O)O)Oc4ncnc6sc(-c7ccc(F)cc7)c(c46)-c4ccc(c(Cl)c4C)CN(CCN4CCN(C)CC4)C5)n3)cc2)[C@@H](OC)[C@H](OC)[C@@H]1OC [Example 11, methyl 6-O-{4-[4-({[(7R,20S)-7-carboxy-18-chloro-1-(4-fluorophenyl)-19-methyl-15-[2-(4-methylpiperazin-1-yl)ethyl]-7,8,15,16-tetrahydro-14H-17,20-etheno-13,9-(metheno)-6-oxa-2-thia-3,5,15-triazacyclooctadeca[1,2,3-cd]inden-10-yl]oxy}methyl)pyrimidin-2-yl]phenyl}-2,3,4-tri-O-methyl-a-D-mannopyranoside]
IC50 [1, 3]: 363000 pM | IC50 [2, 4]: 0.514 µM | Ki (GST-MCL-1; [5]): 2.34 nM | Ki (GST-MCL-1; [6]): 0.374 nM

CO[C@H]1O[C@H](COc2cccc(-c3nccc(COc4ccc5cc4C[C@@H](C(=O)O)Oc4ncnc6sc(-c7ccc(F)cc7)c(c46)-c4ccc(c(Cl)c4C)O[C@H](CN4CCN(C)CC4)CO5)n3)c2)[C@@H](OC)[C@H](OC)[C@@H]1OC [Example 8, methyl 6-O-{3-[4-({[(7S,16R,21S)-7-carboxy-19-chloro-1-(4-fluorophenyl)-20-methyl-16-[(4-methylpiperazin-1-yl)methyl]-7,8,15,16-tetrahydro-18,21-etheno-13,9-(metheno)-6,14,17-trioxa-2-thia-3,5-diazacyclononadeca[1,2,3-cd]inden-10-yl]oxy}methyl)pyrimidin-2-yl]phenyl}-2,3,4-tri-O-methyl-a-D-mannopyranoside]
IC50 [1, 3]: 518000 pM | IC50 [2, 4]: 0.989 µM | Ki (GST-MCL-1; [5]): 111 nM | Ki (GST-MCL-1; [6]): 8.83 nM

Cc1c(Cl)c2c(Cl)c(C)c1-c1c(-c3ccc(F)cc3)sc3ncnc(c13)O[C@@H](C(=O)O)Cc1cc(ccc1OCc1ccnc(-c3ccc(CN4CCOCCOCCOCCOCC4)cc3)n1)OC[C@@H](CN1CCN(C)CC1)O2 [Example 129, (7R,16R)-19,23-dichloro-1-(4-fluorophenyl)-20,22-dimethyl-16-[(4-methylpiperazin-1-yl)methyl]-10-[(2-{4-[(1,4,7,10-tetraoxa-13-azacyclopentadecan-13-yl)methyl]phenyl}pyrimidin-4-yl)methoxy]-7,8,15,16-tetrahydro-18,21-etheno-13,9-(metheno)-6,14,17-trioxa-2-thia-3,5-diazacyclononadeca[1,2,3-cd]indene-7-carboxylic Acid]
IC50 [1, 3]: 144 pM | IC50 [2, 4]: 0.000562 µM | Ki (GST-MCL-1; [5]): 0.064 nM | Ki (GST-MCL-1; [6]): 0.002 nM

COCCOCCOCCO[C@H]1CC[C@@H](c2nccc(COc3ccc4cc3C[C@H](C(=O)O)Oc3ncnc5sc(-c6ccc(F)cc6)c(c35)-c3c(C)c(Cl)c(c(Cl)c3C)O[C@H](CN3CCN(C)CC3)CO4)n2)CC1 [Example 70, (7R,16R)-19,23-dichloro-1-(4-fluorophenyl)-10-({2-[(1s,4s)-4-{2-[2-(2-methoxyethoxy)ethoxy]ethoxy}cyclohexyl]pyrimidin-4-yl}methoxy)-20,22-dimethyl-16-[(4-methylpiperazin-1-yl)methyl]-7,8,15,16-tetrahydro-18,21-etheno-13,9-(metheno)-6,14,17-trioxa-2-thia-3,5-diazacyclononadeca[1,2,3-cd]indene-7-carboxylic Acid]
IC50 [1, 3]: 263 pM | IC50 [2, 4]: 0.000489 µM | Ki (GST-MCL-1; [5]): 0.083 nM | Ki (GST-MCL-1; [6]): 0.012 nM
